Among the data in BindingDB's records for doi:10.1016/j.bmcl.2010.08.118 (Roche Palo Alto, 2010) are IC50 values, retold here.

Bounds are passed on as bounds.

A short description of this assay: Inhibition of CCR5 by cell-cell fusion inhibition assay.
As a reminder, the IC50 is the concentration that inhibits the measured activity by half. Read a high IC50 as weaker potency. In turn, `Cc1ncnc(C)c1C(=O)N1C[C@H]2CN(CCC(c3ccccc3)C3CN(C(=O)CC(C)C)C3)C[C@H]2C1` (stereo partly drawn) [1-(3-(3-((3aR,6aS)-5-(4,6-dimethylpyrimidine-5-carbonyl)hexahydropyrrolo[3,4-c]pyrrol-2(1H)-yl)-1-phenylpropyl)azetidin-1-yl)-3-methylbutan-1-one] showed an IC50 of over 5000 nM.

`Cc1ncnc(C)c1C(=O)N1C[C@H]2CN(CCC(c3ccccc3)C3CCN(C(=O)C(C)C)CC3)C[C@H]2C1` (stereo partly drawn) [1-(4-(3-((3aR,6aS)-5-(4,6-dimethylpyrimidine-5-carbonyl)hexahydropyrrolo[3,4-c]pyrrol-2(1H)-yl)-1-phenylpropyl)piperidin-1-yl)-2-methylpropan-1-one] gave a 50% inhibitory concentration (IC50) of over 5000 nM.

As for `Cc1ncnc(C)c1C(=O)N1C[C@H]2CN(CCC(c3ccccc3)C3CCN(C(=O)CC(C)C)CC3)C[C@H]2C1` (stereo partly drawn) [1-(4-(3-((3aR,6aS)-5-(4,6-dimethylpyrimidine-5-carbonyl)hexahydropyrrolo[3,4-c]pyrrol-2(1H)-yl)-1-phenylpropyl)piperidin-1-yl)-3-methylbutan-1-one], inhibition was half-maximal at 2820 nM (IC50).

Regarding `CCC(=O)N1CCC(C(CCN2C[C@@H]3CN(C(=O)c4c(C)ncnc4C)C[C@@H]3C2)c2ccccc2)CC1` (stereo partly drawn) [1-(4-(3-((3aR,6aS)-5-(4,6-dimethylpyrimidine-5-carbonyl)hexahydropyrrolo[3,4-c]pyrrol-2(1H)-yl)-1-phenylpropyl)piperidin-1-yl)propan-1-one], the half-inhibitory concentration (IC50) is over 5000 nM.

In turn, `Cc1cc(=O)oc(C)c1C(=O)N1C[C@H]2CN(CCC(c3ccccc3)C3CCN(S(C)(=O)=O)CC3)C[C@H]2C1` (stereo partly drawn) [4,6-dimethyl-5-((3aR,6aS)-5-(3-(1-(methylsulfonyl)piperidin-4-yl)-3-phenylpropyl)octahydropyrrolo[3,4-c]pyrrole-2-carbonyl)-2H-pyran-2-one] returned a concentration for half-maximal inhibition (IC50) of 8 nM.

For the molecule `Cc1ncnc(C)c1C(=O)N1C[C@H]2CN(CCC(c3ccccc3)C3CCN(C(=O)NC(C)C)CC3)C[C@H]2C1` (stereo partly drawn) [4-(3-((3aR,6aS)-5-(4,6-dimethylpyrimidine-5-carbonyl)hexahydropyrrolo[3,4-c]pyrrol-2(1H)-yl)-1-phenylpropyl)-N-isopropylpiperidine-1-carboxamide], the IC50 is over 5000 nM.

`Cc1ncnc(C)c1C(=O)N1C[C@H]2CN(CCC(c3ccccc3)C3CN(S(=O)(=O)C(C)C)C3)C[C@H]2C1` (stereo partly drawn) [(4,6-dimethylpyrimidin-5-yl)((3aR,6aS)-5-(3-(1-(isopropylsulfonyl)azetidin-3-yl)-3-phenylpropyl)hexahydropyrrolo[3,4-c]pyrrol-2(1H)-yl)methanone] showed an IC50 of 93 nM.

`Cc1ncnc(C)c1C(=O)N1C[C@H]2CN(CCC(c3ccccc3)C3CCN(S(=O)(=O)C(C)C)CC3)C[C@H]2C1` (stereo partly drawn) [(4,6-dimethylpyrimidin-5-yl)((3aR,6aS)-5-(3-(1-(isopropylsulfonyl)piperidin-4-yl)-3-phenylpropyl)hexahydropyrrolo[3,4-c]pyrrol-2(1H)-yl)methanone] showed an IC50 of 99 nM.

Consider `Cc1ncnc(C)c1C(=O)N1C[C@H]2CN(CCC(c3ccccc3)C3CN(CC(F)(F)F)C3)C[C@H]2C1` (stereo partly drawn) [(4,6-dimethylpyrimidin-5-yl)((3aR,6aS)-5-(3-phenyl-3-(1-(2,2,2-trifluoroethyl)azetidin-3-yl)propyl)hexahydropyrrolo[3,4-c]pyrrol-2(1H)-yl)methanone], for which the 50% inhibitory concentration (IC50) is over 5000 nM.

For the molecule `Cc1ncnc(C)c1C(=O)N1C[C@H]2CN(CCC(c3ccccc3)C3CCN(CC(F)(F)F)CC3)C[C@H]2C1` (stereo partly drawn) [(4,6-dimethylpyrimidin-5-yl)((3aR,6aS)-5-(3-phenyl-3-(1-(2,2,2-trifluoroethyl)piperidin-4-yl)propyl)hexahydropyrrolo[3,4-c]pyrrol-2(1H)-yl)methanone], the IC50 turned out to be 34 nM.

Molecule `Cc1ncnc(C)c1C(=O)N1C[C@H]2CN(CCC(c3cccc(F)c3)C3CCN(CC(F)F)CC3)C[C@H]2C1` (stereo partly drawn) [((3aR,6aS)-5-(3-(1-(2,2-difluoroethyl)piperidin-4-yl)-3-(3-fluorophenyl)propyl)hexahydropyrrolo[3,4-c]pyrrol-2(1H)-yl)(4,6-dimethylpyrimidin-5-yl)methanone] registered a half-inhibitory concentration (IC50) of 11 nM. Compared with the last molecule, the IC50 is about 3.1-fold lower.

`Cc1ncnc(C)c1C(=O)N1C[C@H]2CN(CCC(c3ccccc3)C3CCN(CC(F)F)CC3)C[C@H]2C1` (stereo partly drawn) [((3aR,6aS)-5-(3-(1-(2,2-difluoroethyl)piperidin-4-yl)-3-phenylpropyl)hexahydropyrrolo[3,4-c]pyrrol-2(1H)-yl)(4,6-dimethylpyrimidin-5-yl)methanone] registered an IC50 of 137 nM.

In turn, `Cc1ncnc(C)c1C(=O)N1C[C@H]2CN(CCC(c3ccccc3)C3CN(C(=O)C4CCCC4)C3)C[C@H]2C1` (stereo partly drawn) [((3aR,6aS)-5-(3-(1-(cyclopentanecarbonyl)azetidin-3-yl)-3-phenylpropyl)hexahydropyrrolo[3,4-c]pyrrol-2(1H)-yl)(4,6-dimethylpyrimidin-5-yl)methanone] displayed an IC50 of 2830 nM.

`Cc1ncnc(C)c1C(=O)N1C[C@H]2CN(CCC(c3cc(F)cc(F)c3)C3CN(S(=O)(=O)C4CC4)C3)C[C@H]2C1` (stereo partly drawn) [((3aR,6aS)-5-(3-(1-(cyclopropylsulfonyl)azetidin-3-yl)-3-(3,5-difluorophenyl)propyl)hexahydropyrrolo[3,4-c]pyrrol-2(1H)-yl)(4,6-dimethylpyrimidin-5-yl)methanone]: the IC50 turned out to be 63 nM. Against the preceding molecule, the IC50 is about 45-fold lower.

`Cc1ncnc(C)c1C(=O)N1C[C@H]2CN(CCC(c3cccc(F)c3)C3CN(S(=O)(=O)C4CC4)C3)C[C@H]2C1` (stereo partly drawn) [((3aR,6aS)-5-(3-(1-(cyclopropylsulfonyl)azetidin-3-yl)-3-(3-fluorophenyl)propyl)hexahydropyrrolo[3,4-c]pyrrol-2(1H)-yl)(4,6-dimethylpyrimidin-5-yl)methanone] had an IC50 of 30 nM. Compared with the last molecule, the IC50 is about 2.1-fold lower.

For `Cc1ncnc(C)c1C(=O)N1C[C@H]2CN(CCC(c3ccccc3)C3CN(S(=O)(=O)C4CC4)C3)C[C@H]2C1` (stereo partly drawn) [((3aR,6aS)-5-(3-(1-(cyclopropylsulfonyl)azetidin-3-yl)-3-phenylpropyl)hexahydropyrrolo[3,4-c]pyrrol-2(1H)-yl)(4,6-dimethylpyrimidin-5-yl)methanone], it took 313 nM to reach half-maximal inhibition (IC50).

`COC(=O)N1CCC(C(CCN2C[C@@H]3CN(C(=O)c4c(C)ncnc4C)C[C@@H]3C2)c2ccccc2)CC1` (stereo partly drawn) [methyl 4-(3-((3aR,6aS)-5-(4,6-dimethylpyrimidine-5-carbonyl)hexahydropyrrolo[3,4-c]pyrrol-2(1H)-yl)-1-phenylpropyl)piperidine-1-carboxylate]: the IC50 is 744 nM.
